Key:
Assay type in all cases: in vivo
[1] = system: windgrass (Apera spica-venti); test: Test B postemergence plant response; conditions: for Plant response rating, Windgrass: Postemergence
Procedure, shortened: (§1)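 Plants at the 1- to 4-leaf stage (2 to 18 cm tall), grown in pots of peat moss/vermiculite medium with wetting agent and starter nutrients, received postemergence applications of test chemicals. After 13 to 15 days in a greenhouse, injury was rated visually against untreated controls on a 0 (no effect) to 100 (complete control) scale.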

[2] = system: canarygrass (Phalaris minor); test: Test B postemergence plant response; conditions: for Plant response rating, Canarygrass: Postemergence
Procedure, shortened: as §1

[3] = system: winter barley (Hordeum vulgare); test: Test B postemergence plant response; conditions: for Plant response rating, Barley: Postemergence
Procedure, shortened: as §1

[4] = system: chickweed (Stellaria media); test: Test B postemergence plant response; conditions: for Plant response rating, Chickweed: Postemergence
Procedure, shortened: as §1

[5] = system: giant foxtail (Setaria faberii); test: Test B pre-/postemergence plant response; conditions: for Plant response rating, Foxtail, Giant: Postemergence
Text: (§2) Seeds of plant species selected from blackgrass (Alopecurus myosuroides), downy bromegrass (Bromus tectorum), green foxtail (Setaria viridis), Italian ryegrass (Lolium multiflorum), wheat (Triticum aestivum), wild oat (Avena fatua), deadnettle (henbit deadnettle, Lamium amplexicaule), galium (catchweed bedstraw, Galium aparine), bermudagrass (Cynodon dactylon), Surinam grass (Brachiaria decumbens), cocklebur (Xanthium strumarium), corn (Zea mays), large crabgrass (Digitaria sanguinalis), woolly cupgrass (Eriochloa villosa), giant foxtail (Setaria faberii), goosegrass (Eleusine indica), johnsongrass (Sorghum halepense), kochia (Kochia scoparia), lambsquarters (Chenopodium album), morningglory (Ipomoea coccinea), nightshade (eastern black nightshade, Solanum ptycanthum), yellow nutsedge (Cyperus esculentus), pigweed (Amaranthus retroflexus), ragweed (common ragweed, Ambrosia elatior), Russian thistle (Salsola kali), soybean (Glycine max), sunflower (common oilseed sunflower, Helianthus annuus) and velvetleaf (Abutilon theophrasti) were planted into a blend of loam soil and sand and treated preemergence with test compounds formulated in a non-phytotoxic solvent mixture which included a surfactant.
(§3) At the same time, plants selected from these crop and weed species and also winter barley (Hordeum vulgare), canarygrass (Phalaris minor), chickweed (Stellaria media) and windgrass (Apera spica-venti) were planted in pots containing Redi-Earth® planting medium (Scotts Company, 14111 Scottslawn Road, Marysville, Ohio 43041) comprising spaghnum peat moss, vermiculite, wetting agent and starter nutrients and treated with postemergence applications of some of the test chemicals formulated in the same manner. Plants ranged in height from 2 to 18 cm (1- to 4-leaf stage) for postemergence treatments.
(§4) Treated plants and controls were maintained in a greenhouse for 13 to 15 days, after which time all treated plants were visually evaluated and compared to controls. Plant response ratings, summarized in Table B, are based on a scale of 0 to 100 where 0 is no effect and 100 is complete control. A dash (-) response means no test result.

[6] = system: soybean (Glycine max); test: Test B pre-/postemergence plant response; conditions: for Plant response rating, Soybean: Postemergence
Text: as §2, §3, §4

[7] = system: velvetleaf (Abutilon theophrasti); test: Test B pre-/postemergence plant response; conditions: for Plant response rating, Velvetleaf: Postemergence
Text: as §2, §3, §4

[8] = system: johnsongrass (Sorghum halepense); test: Test B pre-/postemergence plant response; conditions: for Plant response rating, Johnsongrass: Postemergence
Text: as §2, §3, §4

[9] = system: green foxtail (Setaria viridis); test: Test B pre-/postemergence plant response; conditions: for Plant response rating, Foxtail, Green: Postemergence
Text: as §2, §3, §4

[10] = system: corn (Zea mays); test: Test B pre-/postemergence plant response; conditions: for Plant response rating, Corn: Postemergence
Text: as §2, §3, §4

[11] = system: pigweed (Amaranthus retroflexus); test: Test B pre-/postemergence plant response; conditions: for Plant response rating, Pigweed: Postemergence
Text: as §2, §3, §4

[12] = system: lambsquarters (Chenopodium album); test: Test B pre-/postemergence plant response; conditions: for Plant response rating, Lambsquarters: Postemergence
Text: as §2, §3, §4

[13] = system: yellow nutsedge (Cyperus esculentus); test: Test B pre-/postemergence plant response; conditions: for Plant response rating, Nutsedge, Yellow: Postemergence
Text: as §2, §3, §4

[14] = system: goosegrass (Eleusine indica); test: Test B pre-/postemergence plant response; conditions: for Plant response rating, Goosegrass: Postemergence
Text: as §2, §3, §4

[15] = 62 g ai/ha, postemergence, 0 is no effect, 100 is complete control, 13 to 15 days
[16] = 31 g ai/ha, 0 to 100 scale (0 no effect, 100 complete control)
[17] = 125 g ai/ha, scale 0 to 100 (0 no effect, 100 complete control)
[18] = 250 g ai/ha, scale 0 to 100 (0 no effect, 100 complete control), 13 to 15 days

## CCCn1c(-c2cccc(Br)c2)ncc(C(=O)C2=C(O)CCCC2=O)c1=O [Compound 141]
[1]; [15]
  Windgrass plant response rating (0 to 100 scale): 35
[1]; [16]
  Plant response rating, Windgrass: 25
[1]; [17]
  Plant response rating, Windgrass: 40
[1]; [18]
  Plant response rating, Windgrass: 50
[2]; [15]
  Canarygrass plant response rating (0 to 100 scale): 0
[2]; [16]
  Plant response rating, Canarygrass: 0
[2]; [17]
  Plant response rating, Canarygrass: 5
[2]; [18]
  Plant response rating, Canarygrass: 5
[3]; [15]
  Barley plant response rating (0 to 100 scale): 0
[3]; [16]
  Plant response rating, Barley: 0
[3]; [17]
  Plant response rating, Barley: 5
[3]; [18]
  Plant response rating, Barley: 5
[4]; [15]
  Chickweed plant response rating (0 to 100 scale): 85
[4]; [16]
  Plant response rating, Chickweed: 60
[4]; [17]
  Plant response rating, Chickweed: 90
[4]; [18]
  Plant response rating, Chickweed: 95
[5]; [15]
  Foxtail, Giant plant response rating (0 to 100 scale): 75
[5]; [16]
  Plant response rating, Foxtail, Giant: 75
[5]; [17]
  Plant response rating, Foxtail, Giant: 80
[5]; [18]
  Plant response rating, Foxtail, Giant: 85
[6]; [15]
  Soybean plant response rating (0 to 100 scale): 70
[6]; [16]
  Plant response rating, Soybean: 70
[6]; [17]
  Plant response rating, Soybean: 75
[6]; [18]
  Plant response rating, Soybean: 90
[7]; [15]
  Velvetleaf plant response rating (0 to 100 scale): 95
[7]; [16]
  Plant response rating, Velvetleaf: 75
[7]; [17]
  Plant response rating, Velvetleaf: 98
[7]; [18]
  Plant response rating, Velvetleaf: 98
[8]; [15]
  Johnsongrass plant response rating (0 to 100 scale): 15
[8]; [16]
  Plant response rating, Johnsongrass: 15
[8]; [17]
  Plant response rating, Johnsongrass: 50
[8]; [18]
  Plant response rating, Johnsongrass: 65
[9]; [15]
  Foxtail, Green plant response rating (0 to 100 scale): 75
[9]; [16]
  Plant response rating, Foxtail, Green: 50
[9]; [17]
  Plant response rating, Foxtail, Green: 90
[9]; [18]
  Plant response rating, Foxtail, Green: 90
[10]; [15]
  Corn plant response rating (0 to 100 scale): 45
[10]; [16]
  Plant response rating, Corn: 0
[10]; [17]
  Plant response rating, Corn: 45
[10]; [18]
  Plant response rating, Corn: 45
[11]; [15]
  Pigweed plant response rating (0 to 100 scale): 75
[11]; [16]
  Plant response rating, Pigweed: 60
[11]; [17]
  Plant response rating, Pigweed: 95
[11]; [18]
  Plant response rating, Pigweed: 98
[12]; [15]
  Lambsquarters plant response rating (0 to 100 scale): 80
[12]; [16]
  Plant response rating, Lambsquarters: 80
[12]; [17]
  Plant response rating, Lambsquarters: 98
[12]; [18]
  Plant response rating, Lambsquarters: 100
[13]; [15]
  Nutsedge, Yellow plant response rating (0 to 100 scale): 10
[13]; [16]
  Plant response rating, Nutsedge, Yellow: 0
[13]; [17]
  Plant response rating, Nutsedge, Yellow: 60
[13]; [18]
  Plant response rating, Nutsedge, Yellow: 60
[14]; [15]
  Goosegrass plant response rating (0 to 100 scale): 75
[14]; [16]
  Plant response rating, Goosegrass: 65
[14]; [17]
  Plant response rating, Goosegrass: 75
[14]; [18]
  Plant response rating, Goosegrass: 80
